# From PMC10828251, “A novel PSMA-targeting tracer with highly negatively charged linker demonstrates decreased salivary gland uptake in mice compared to [^68Ga]Ga-PSMA-11” (EJNMMI Radiopharmacy and Chemistry, 2024)
# Values joined by “and” are separate entries in the source; they are usually repeats but may differ in a detail not shown here. Equal values may be shown once. Read-outs that look alike come from different tables or passages of the source. Numbered stars: 1 amine (or outer) side, 2 acyl side, 3 side chain; on linkers, the order of the positions; unused ones are H or OH. Peptide text beside a SMILES is read from it. * marks the point of attachment. X1 = O=C(O)CN1CCN(CC(=O)O)CC(Cc2ccc(NC(=S)*)cc2)N(CC(=O)O)CC1; DOTA = O=C(O)CN1CCN(CC(=O)O)CCN(CC(=O)*)CCN(CC(=O)O)CC1; γGlu = O=C(O)[CH](CCC(=O)[*:2])N[*:1]; CO = O=C([*:1])[*:2]; Ahx = NCCCCCC(=O)O
# Columns and labels:
# [1] = test system: PC3-PIP PSMA-expressing cell line; assay: initial biodistribution study, low molar activity, PC3-PIP tumor-bearing NSG mice; type: in vivo; details: 1 hour after injection, specific activity below 7.4 GBq/μmol; for Biodistribution, Tumor: PC3-PIP PSMA+ tumor, NSG mice
# Protocol: Radiolabeling of JB-1498 for the initial biodistribution study was performed using [^68Ga]GaCl3 from a spent ^68Ge/^68Ga generator from Isotopen Technologies Garching (Garching, Germany, currently ITM). JB-1498 with [^68Ga]GaCl3 was heated in aqueous sodium acetate buffer at pH 4–5 and 97 C for 7 min. The reaction product was HPLC-purified for the biodistribution study as detailed in the Additional file 1. The molar activity of the purified product was less than 7.4 GBq/μmol (200 Ci/mmol) at the conclusion of synthesis.
# For the initial biodistribution study in tumor bearing mice, 3 male 10 week-old NSG mice (NOD.Cg-Prkdc^scidIl2rg^tm1Wjl/SzJ) were inoculated subcutaneously with 4 million cells of PC3-PIP PSMA-expressing cell line. Mice were housed in a specific pathogen free, temperature- and humidity-controlled environment, in standard micro-isolator top cages with ad libitum access to chow. Biodistribution studies were conducted when the long axis of the tumor exceeded 1 cm. Each mouse was injected with 100 μL of the [^68Ga]Ga-JB-1498 solution under isoflurane anesthesia via retro-orbital injection in the right eye and euthanized 1 h after injection. Major organs (including the left salivary glands) were dissected for radioactivity quantification. The dose injected was 0.74 ± 0.27 MBq.
# [2] = assessment of stability (radiolysis) by radio-HPLC; type: physicochemical; details: for degradation on radio-HPLC after Ga-68 labeling without radioprotectant: aqueous sodium acetate buffer
# Protocol: The compound in Figure 7 was not further developed as a potential theranostic agent since the need for a radioprotectant with Ga-68 labeling indicated potentially significant instability with high dose beta and alpha emitters.
# Figure 8. Radio-HPLC trace of the compound in Figure 7 seventy minutes after labeling with Ga-68. The labeling reaction consisted of 2 μL of the compound (0.5mg/mL), 40 μL of NaOAc Buffer B, 5 μL ascorbic acid (100mg/mL) and 0.2mL of Eckert & Ziegler GalliaPharm Generator eluate. Buffer B composition is stated above. The HPLC gradient used was 5%-95%B in 15 minutes where solvent B is acetonitrile and solvent A is water with 0.1% formic acid. Column: Phenomenex Synergi Hydro-RP 80A 150x4.6mm 4 micrometer column (Phenomenex, Torrance, CA).
# Figure 10. Radio-HPLC trace of [^68Ga]Ga-JB-1498 immediately after radiolabeling. The small signal at the solvent front is a very small amount of [^68Ga]GaCl3. The labeling reaction contained 2 μL of JB1498 (0.5mg/mL), 40 μL of NaOAc Buffer B and 0.2mL of Eckert & Ziegler GalliaPharm Generator eluate. Buffer B composition is stated above. The HPLC gradient used was 5%-95%B in 15 minutes where solvent B is acetonitrile and solvent A is water with 0.1% formic acid. Column: Waters (Milford, MA) Symmetry C18, 5μm, 4.6 x 150 mm column.
# [3] = micro-PET imaging in non-tumor-bearing NSG mice; type: in vivo; details: for course of activity in salivary glands and kidneys, dynamic micro-PET: during the first hour
# Protocol: For the micro-PET imaging study, high molar activity [^68Ga]Ga-JB-1498 and [^68Ga]Ga-PSMA-11 were administered to non-tumor bearing NSG mice via tail vein injection. The dose injected was 5.3MBq of [^68Ga]Ga-PSMA-11 and 4.4 MBq of [^68Ga]Ga-JB-1498. Imaging was performed on a nanoScan PET/CT instrument (Mediso USA, Arlington, Virginia). List mode PET acquisition was performed for 45 min starting 25 min post-injection. CT was performed for PET attenuation correction and anatomic localization.
# [4] = high molar activity biodistribution study in non-tumor-bearing NSG mice; type: in vivo; details: 1 hour after injection, high specific activity 59 GBq/μmol
# Protocol: For the high molar activity biodistribution and imaging study, a fresh 1.85 GBq (50mCi) GalliaPharm Gallium-68 generator from Eckert & Ziegler (Berlin, Germany) was used. Radiolabeling of JB-1498 with [^68Ga]GaCl3 was performed in aqueous sodium acetate buffer at pH 4–5 and 98 °C for 10 min. The reaction product was diluted with water, loaded onto an Oasis HLB cartridge, washed with water, and eluted with 2:1 PBS:EtOH as detailed in the Additional file 1. The fractions with highest radioactivity were diluted with saline for injection in mice. Please refer to Additional file 1: Figs. 4 and Fig. 5 for HPLC traces of the products prior to and after solid phase extraction. The molar activity of the purified product was estimated to be 59 GBq/μmol (1600 Ci/mmol) at the time of first injection. [^68Ga]Ga-PSMA-11 was produced concurrently by incubating [^68Ga]GaCl3 and PSMA-11 precursor in sodium acetate buffer at pH 4–5 at room temperature for 10 min. Please refer to Additional file 1: Fig. 6 for HPLC trace of the product. The molar activity of the product was estimated to be 48 GBq/μmol (1300 Ci/mmol) at the time of first injection.
# For the high molar activity biodistribution study aimed at maximizing salivary gland uptake, 3 male NSG mice without tumor were injected with 100μL of the [^68Ga]Ga-JB-1498 solution under anesthesia via retro-orbital injection per the above-described protocol. The dose injected was 1.31 ± 0.26 MBq.
# LNCaP cell line = test system: LNCaP cell line; design: method as in Rousseau et al. [2018]; details: NSG mice, one hour after injection, ref Rousseau et al. [2018], cited from earlier work
# [5] = test system: PSMA-expressing metastatic prostate cancer; design: method as in Sartor et al. [2021]; details: 7.4 GBq (200 mCi) regimen; ref Sartor et al. [2021]; cited from earlier work
# [6] = N=3, listed as [^68Ga]Ga-JB1498
# [7] = LNCaP tumor model, listed as [^68Ga]Ga-PSMA 11
molecule,measurement,setting,value
NC(=O)C(CCCCNC(=O)CN1CCN(CC(=O)O)CCN(CC(=O)O)CCN(CC(=O)O)CC1)NC(=O)C(Cc1ccc(O)cc1)NC(=O)C(CCC(=O)O)NC(=O)C(CCC(=O)O)NC(=O)C(CCC(=O)O)NC(=O)CCCCCNC(=O)CCC(NC(=O)NC(CCC(=O)O)C(=O)O)C(=O)O.[68Ga] (stereo not shown) [[^68Ga]Ga-JB-1498] ({Glu-CO-γGlu-Ahx}-EEEYK(DOTA)-NH2; configuration not given here),"Biodistribution, Tumor",[1],12.09%ID/gram of tissue and 10.49%ID/gram of tissue
same,"Biodistribution, Tumor",[1]; listed as [^68Ga]Ga-JB1498,12.09 ± 1.28 %ID/gram of tissue
same,"Biodistribution, Blood",[1]; PSMA+ tumor-bearing NSG mice,0.22%ID/gram of tissue
same,"Biodistribution, Bone",[1]; PSMA+ tumor-bearing NSG mice,0.11%ID/gram of tissue and 0.10%ID/gram of tissue
same,"Biodistribution, Heart",[1]; PSMA+ tumor-bearing NSG mice,0.12%ID/gram of tissue and 0.11%ID/gram of tissue
same,"Biodistribution, Liver",[1]; PSMA+ tumor-bearing NSG mice,0.20%ID/gram of tissue and 0.18%ID/gram of tissue
same,"Biodistribution, Lung",[1]; PSMA+ tumor-bearing NSG mice,0.24%ID/gram of tissue and 0.21%ID/gram of tissue
same,"Biodistribution, Muscle",[1]; PSMA+ tumor-bearing NSG mice,0.22%ID/gram of tissue and 0.19%ID/gram of tissue
same,"Biodistribution, Salivary gland",[1]; PSMA+ tumor-bearing NSG mice,0.13 ± 0.01 %ID/gram of tissue and 0.13%ID/gram of tissue and 0.11%ID/gram of tissue
same,"Biodistribution, Spleen","[1]; PSMA+ tumor-bearing NSG mice, 2 splenic samples",0.31%ID/gram of tissue and 0.27%ID/gram of tissue
same,"Biodistribution, Liver","[1]; PSMA+ tumor-bearing NSG mice, listed as [^68Ga]Ga-JB1498",0.20 ± 0.09 %ID/gram of tissue
same,"Biodistribution, Kidney","[1]; PSMA+ tumor-bearing NSG mice, single sample of left kidney",12.98%ID/gram of tissue
same,degradation on radio-HPLC after Ga-68 labeling without radioprotectant,[2]; no radioprotectant,no significant degradation
same,radiolysis on radio-HPLC 2.5 hours after synthesis,"[2]; no radioprotectant, compared to trace immediately after radiolabeling",no significant radiolysis
same,salivary gland (SG) and background activity on micro-PET compared to [68Ga]Ga-PSMA-11,"[3]; 1 h post injection, same SUV grayscale",very little
same,tracer excretion on micro-PET,"[3]; 1 h post injection, most of injected tracer in the urinary bladder",rapid tracer excretion via the kidneys
same,salivary gland and kidney uptake on micro-PET images compared to [68Ga]Ga-PSMA-11,"[3]; 1 h post-injection, tail vein, non-tumor bearing NSG mice",much lower
same,"course of activity in salivary glands and kidneys, dynamic micro-PET",[3],gradually decreasing
same,"Biodistribution, Blood",[4]; N=3,0.39%ID/gram of tissue
same,"Biodistribution, Combined Salivary gland",[4]; N=3,0.39%ID/gram of tissue
same,"Biodistribution, Kidney",[4]; N=3,10.12%ID/gram of tissue
same,"Biodistribution, Liver",[4]; N=3,0.68%ID/gram of tissue
same,"Biodistribution, Lung",[4]; N=3,0.66%ID/gram of tissue
same,"Biodistribution, Spleen",[4]; N=3,2.34%ID/gram of tissue
same,"Biodistribution, parotid (Left)",[4]; N=3,0.36%ID/gram of tissue
same,"Biodistribution, submandibular (Left)",[4]; N=3,0.42%ID/gram of tissue
same,"Biodistribution, Combined Salivary gland",[4]; [6],0.39 ± 0.24 %ID/gram of tissue
same,"Biodistribution, Kidney",[4]; [6],10.12 ± 1.73 %ID/gram of tissue
O=C([O-])CN(CCN(CC(=O)[O-])Cc1cc(CCC(=O)NCCCCCC(=O)NCCCC[C@H](NC(=O)N[C@@H](CCC(=O)O)C(=O)O)C(=O)O)ccc1[O-])Cc1cc(CCC(=O)O)ccc1[O-].[68Ga+3].[OH3+] [[^68Ga]Ga-PSMA-11],"course of activity in salivary glands and kidneys, dynamic micro-PET",[3],gradually increasing
same,"Biodistribution, Blood",LNCaP cell line; LNCaP tumor model,0.31%ID/gram of tissue
same,"Biodistribution, Kidney",LNCaP cell line; LNCaP tumor model,182.0 ± 33.5 %ID/gram of tissue
same,"Biodistribution, Liver",LNCaP cell line; LNCaP tumor model,0.44%ID/gram of tissue
same,"Biodistribution, Muscle",LNCaP cell line; LNCaP tumor model,0.54%ID/gram of tissue
same,"Biodistribution, Salivary gland",LNCaP cell line; LNCaP tumor model,10.00 ± 2.52 %ID/gram of tissue
same,"Biodistribution, Spleen",LNCaP cell line; LNCaP tumor model,22.20%ID/gram of tissue
same,"Biodistribution, Kidney",LNCaP cell line; [7],182.00%ID/gram of tissue
same,"Biodistribution, Salivary gland",LNCaP cell line; [7],10.00%ID/gram of tissue
same,"Biodistribution, Tumor",LNCaP cell line; LNCaP tumor,8.67%ID/gram of tissue
"NC(=O)C(CCCCNC(=S)Nc1ccc(CC2CN(CC(=O)O)CCN(CC(=O)O)CCN2CC(=O)O)cc1)NC(=O)C(Cc1ccc(O)cc1)NC(=O)C(CCC(=O)O)NC(=O)C(CCC(=O)O)NC(=O)C(CCC(=O)O)NC(=O)CCCCCNC(=O)CCC(NC(=O)NC(CCC(=O)O)C(=O)O)C(=O)O (stereo not shown) (68Ga complex, metal not drawn) [compound in Figure 7] ({Glu-CO-γGlu-Ahx}-EEEYK(X1)-NH2; configuration not given here)",stability on radio-HPLC after Ga-68 labeling with radioprotectant,[2]; aqueous sodium acetate buffer with ascorbic acid,reasonable stability with minimal degradation
same,degradation on radio-HPLC after Ga-68 labeling without radioprotectant,[2]; no radioprotectant,multiple peaks in radio-HPLC
same,radiolysis on radio-HPLC two hours after radiolabeling,[2]; in the presence of ascorbic acid,some radiolysis
[^177Lu]Lu-PSMA-617,complete response,[5],9%
same,partial response,[5],42%
